≈ marks a conversion by molar mass, not a printed value. Where two headings read alike, the source gives them in different places.
Tested on: C. albicans
Experiment: minimum inhibitory concentration (MIC) assay against C. albicans
Assay type: cell-based, Candida albicans
Settings: growth inhibition of C. albicans, assay performed by Charles River Laboratories
Experimental: To determine the ability of the cannabinoid compounds described herein to reduce, inhibit, or eliminate, C. albicans a minimum inhibitory concentration (“MIC”) assay was performed. […] The assay was performed by Charles River Laboratories International (Wilmington, Mass.) in accordance with industry standards.

[1] = Candida albicans, read-out: MIC

Molecule | MIC [1] | MIC | MIC (Candida albicans)
CCCCCc1cc(O)c2c(c1)OC(C)(CCC=C(C)C)C=C2 (centres unmarked) [CBC, cannabichromene] | > 200 µg/mL | >200 µg/mL | –
CCCCCc1cc2c(c(O)c1C(=O)O)C=CC(C)(CCC=C(C)C)O2 (centres unmarked) [CBCA, cannabichromenic acid] | – | >200 µg/mL | –
C=C(C)[C@@H]1CCC(C)=C[C@H]1c1c(O)cc(CCCCC)cc1O [CBD, cannabidol] | – | 200 µg/mL (≈ 636 µM) | –
C=C(C)[C@@H]1CCC(C)=C[C@H]1c1c(O)cc(CCCCC)c(C(=O)O)c1O [CBDA, cannabidiolic acid] | > 200 µg/mL | >200 µg/mL | –
C=C(C)[C@@H]1CCC(C)=C[C@H]1c1c(O)cc(CCC)cc1O [CBDV, cannabidivarin] | – | – | < 25 µg/mL
C=C(C)[C@@H]1CCC(C)=C[C@H]1c1c(O)cc(CCC)c(C(=O)O)c1O [CBDVA, cannabidivarinic acid] | – | >200 µg/mL | –
CCCCCc1cc(O)c(C/C=C(\C)CCC=C(C)C)c(O)c1 [CBG, cannabigerol] | > 200 µg/mL | >200 µg/mL | –
CCCCc1cc(O)c(CC=C(C)CCC=C(C)C)c(O)c1 [CBG-C4, cannabigerol butyl] | – | 200 µg/mL (≈ 661 µM) | –
CCCCCc1cc(O)c(C/C=C(\C)CCC=C(C)C)c(O)c1C(=O)O [CBGA, cannabigerolic acid] | > 200 µg/mL | >200 µg/mL | –
CCCCc1cc(O)c(C/C=C(\C)CCC=C(C)C)c(O)c1C(=O)O [CBGA-C4, cannabigerolic acid butyl] | – | >200 µg/mL | –
CCCc1cc(O)c(C/C=C(\C)CCC=C(C)C)c(O)c1 [CBGV, cannabigerivarin] | – | 50 µg/mL (≈ 173 µM) | –
CCCc1cc(O)c(C/C=C(\C)CCC=C(C)C)c(O)c1C(=O)O [CBGVA, cannabigerovarinic acid] | – | >200 µg/mL | –
CCCCCc1cc(O)c2c(c1)OC1(C)CCC3C1C2C3(C)C (centres unmarked) [CBL, cannabicyclol] | > 200 µg/mL | >200 µg/mL | –
CCCCCc1cc2c(c(O)c1C(=O)O)C1C3C(CCC3(C)O2)C1(C)C (centres unmarked) [CBLA, cannabicyclolic acid] | – | >200 µg/mL | –
CCCCCc1cc(O)c2c(c1)OC(C)(C)c1ccc(C)cc1-2 [CBN, cannabinol] | > 200 µg/mL | >200 µg/mL | –
CCCCCc1cc2c(c(O)c1C(=O)O)-c1cc(C)ccc1C(C)(C)O2 [CBNA, cannabinolic acid] | – | >200 µg/mL | –
(+)-cannabidiol [(+)-CBD] | – | >200 µg/mL | –

Reference: patent US20230082130A1, “USE OF C[…] TO TREAT OR PREVENT FUNGAL GROWTH OF C. ALBICANS” (Demetrix, Inc., priority 2021, published 2023)
